# Data taken from patent US20150203561A1, “BETA THYMOSIN FRAGMENTS” (REGENERX BIOPHARMACEUTICALS, INC., priority 2008, published 2015).
# Tests used:
# neurite outgrowth = test: Promotion of neurite outgrowth (summary table); parameters: key: P = active; U = useful; conditions: summary of peptide uses
# [1] = tested on: tissue damage caused by UV radiation; test: UV radiation tissue damage (summary table); parameters: key: P = active; U = useful; conditions: summary of peptide uses
# human dermal fibroblasts [2] = test: Collagen secretion, colorimetric assay; format: cell-based; parameters: key to Stimulates collagens / Inhibits collagens: P = active; U = useful; conditions: for Stimulates collagens / Inhibits collagens: summary of peptide uses
# Method: Effect of Tb4 and peptides on collagen secretion • Human dermal fibroblasts (Fb) were cultured to 80% confluence • Cells were treated with 1 μg/ml Tb4 or peptides for 24, 48, or 72 hours. Cells were treated once/day. • Culture supernatants (n=3, experiments repeated 5 times) were assayed for collagen secretion using a colorimetric assay that detects collagen types I, II, III, IV and V, and possibly VII
# L1 = test: Stimulation of L1 production (summary table); parameters: key: P = active; U = useful; conditions: summary of peptide uses
# neuron survival = test: Promotion of neuron survival (summary table); parameters: key: P = active; U = useful; conditions: summary of peptide uses
# IKKb = biological target: T1, IKKb (Homo sapiens, UniProt O14920); test: Cell-free IkBa phosphorylation ELISA (NFkB signaling pathway); format: biochemical; parameters: key to Inhibits IkBa phosphorylation: P = active; U = useful
# T1 sequence (O14920 1-756): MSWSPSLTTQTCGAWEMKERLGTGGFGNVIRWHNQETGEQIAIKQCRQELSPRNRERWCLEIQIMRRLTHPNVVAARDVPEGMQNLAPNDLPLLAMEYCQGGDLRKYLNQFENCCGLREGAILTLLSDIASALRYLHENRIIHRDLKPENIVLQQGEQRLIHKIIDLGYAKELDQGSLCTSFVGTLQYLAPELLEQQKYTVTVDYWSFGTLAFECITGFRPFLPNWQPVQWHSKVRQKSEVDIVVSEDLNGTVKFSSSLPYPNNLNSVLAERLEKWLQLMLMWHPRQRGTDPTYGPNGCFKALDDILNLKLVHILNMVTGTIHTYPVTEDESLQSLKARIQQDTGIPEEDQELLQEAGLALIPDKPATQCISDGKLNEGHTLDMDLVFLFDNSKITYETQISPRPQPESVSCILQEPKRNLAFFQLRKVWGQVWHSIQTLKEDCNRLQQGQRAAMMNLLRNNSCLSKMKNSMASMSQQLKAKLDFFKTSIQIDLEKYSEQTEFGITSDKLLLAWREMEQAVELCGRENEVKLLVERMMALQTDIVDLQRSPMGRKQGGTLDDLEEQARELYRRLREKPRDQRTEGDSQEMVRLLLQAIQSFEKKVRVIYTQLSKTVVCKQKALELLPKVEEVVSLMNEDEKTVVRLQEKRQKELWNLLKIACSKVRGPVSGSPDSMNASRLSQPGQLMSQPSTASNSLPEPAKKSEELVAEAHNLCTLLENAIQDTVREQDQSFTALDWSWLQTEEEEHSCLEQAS
# Method: Effect of Tb4 and peptides on the NFkB signaling pathway • Cell-free assay • Prepared 1.0, 0.1, and 0.01 ng/ml solutions of Tb4 or peptides in kinase buffer supplied with kit • Added 10 μl of the solutions to wells of a 96-well plate coated with lkBa • IKKb (20 mU) was added to wells • 90 μl kinase reaction buffer (containing ATP) was added to the wells • ELISA to detect phosphorylated lkBa
# human dermal fibroblasts [3] = test: Elastin secretion, colorimetric assay; format: cell-based; parameters: key to Stimulates Elastin: P = active; U = useful; conditions: for Secretion of elastin: dermal Fb, 1 μg/ml once/day, 24, 48, or 72 hours; for Stimulates Elastin: summary of peptide uses
# Method: Effect of Tb4 and peptides on elastin secretion • Human dermal fibroblasts (Fb) were cultured to 80% confluence • Cells were treated with 1 μg/ml Tb4 or peptides for 24, 48, or 72 hours. Cells were treated once/day. • Culture supernatants (n=3, experiments repeated 6 times) were assayed for elastin secretion using a colorimetric assay • Data was analyzed using the t-test
# cell migration = test: Stimulation of migration (summary table); format: cell-based; parameters: key: P = active; U = useful; conditions: summary of peptide uses
# human dermal fibroblasts [4] = test: LDH cytotoxicity assay in human dermal fibroblasts exposed to cytotoxic agents; format: cell-based; parameters: key to Protects from cytotoxicity: P = active; U = useful; conditions: for Protects from cytotoxicity: summary of peptide uses
# Method: Dose Response Analysis of Peptide 3A • Human dermal fibroblasts (Fb, Cascade Biologics, OR) were cultured to 80% confluence • 2 ml CHX (0.002%) in basal medium ±1 μg/ml Tb4 or 1.0, 0.1, 0.01, or 0.001 μg/ml peptide 3A was added to Fb for 1, 2, 3, or 4 hours • 100 μl culture medium (n=4) was added to 100 μl LDH reagent and incubated at room temperature for 20 minutes • OD500 nm was read and averages ±SEM were calculated • Data was analyzed with probability of p≦0.05
# human dermal Fb = test: CHX-induced apoptosis (APOPercentage dye) in human dermal Fb; format: cell-based; parameters: key to Inhibits apoptosis: P = active; U = useful; conditions: summary of peptide uses
# Method: Effect of Tb4 and Peptide 3A on CHX-induced apoptosis • Human dermal Fb were cultured to 80% confluence • Fb were treated with 0.002% CHX+1 μg/ml Tb4 or peptide 3A, 4A or 6A for 1.5 hours • APOPercentage “dye” was added to the Fb cultures at a 1:50 dilution for an additional 30 minutes • Excess dye was washed from the cells, and digital images were captured. Cells dyed red were apoptotic • Adobe Photoshop was used to calculate the number of red pixels in six digitized images for each treatment • Statistical analysis was done using the t-test
# [5] = tested on: TNF-a-stimulated IL8 secretion; test: Suppression of inflammation (summary table; IL-8 secretion); format: cell-based, human; parameters: key: P = active; U = useful; conditions: summary of peptide uses
# Method: Analysis of IL-8 Secretion • Human corneal epithelial cells or dermal Fb were cultured to 80% confluence • Cells were pre-treated with 1 μg/ml Tb4 or peptides for one hour • Cells were stimulated with 10 ng/ml TNF-a in the presence or absence of Tb4 or peptides • Culture medium was analyzed for secreted IL-8 by ELISA (n=3, experiments repeated twice) • Data was analyzed using the t-test
# [6] = tested on: Transformed human corneal epithelial cells (HCET); test: Collagen type IV secretion ELISA; format: cell-based; parameters: key to Stimulates collagen IV: P = active; U = useful
# Method: Effect of Tb4 and peptides on collagen type IV secretion • Transformed human corneal epithelial cells (HCET) were cultured to 80% confluence • Cells were treated with 1 μg/ml Tb4 or peptides for 24 hours • Culture supernatant samples (n=3 per experiment, total of 4 experiments) were analyzed using a collagen type IV ELISA • Data was analyzed using the t-test
substance,measurement,setting,value
Ac-Glu-Lys-Asn-Pro-Leu-Pro-Ser-Lys-Glu-Thr-OH (Ac-EKNPLPSKET-OH) [Peptide 5B],Promotes neurite outgrowth,neurite outgrowth,U
same,Inhibits tissue damage caused by UV radiation,[1],U
same,Protects tissue from UV radiation damage,[1],U
same,Stimulation of secretion of collagens,"human dermal fibroblasts [2]; human dermal fibroblasts, 1 μg/ml once/day, after 3 days of treatment",stimulates
same,Stimulates collagens,human dermal fibroblasts [2],P
same,Stimulates L1 production,L1,U
same,Promotes neuron survival,neuron survival,U
Ac-Ile-Glu-Gln-Glu-Lys-Gln-Ala-Gly-Glu-Ser-OH (Ac-IEQEKQAGES-OH) [Peptide 6B],Promotes neurite outgrowth,neurite outgrowth,U
same,Inhibits tissue damage caused by UV radiation,[1],U
same,Protects tissue from UV radiation damage,[1],U
same,Inhibition of IkBa phosphorylation (NFkB signaling pathway),"IKKb; cell-free, 1.0, 0.1, and 0.01 ng/ml",may have an effect
same,Inhibits IkBa phosphorylation,IKKb; summary of peptide uses,P
same,Inhibits collagens,human dermal fibroblasts [2],P
same,Stimulates L1 production,L1,U
same,Promotes neuron survival,neuron survival,U
Ac-Leu-Lys-Lys-Thr-Glu-Thr-Gln-OH (Ac-LKKTETQ-OH) [Peptide 4B],Promotes neurite outgrowth,neurite outgrowth,U
same,Inhibits tissue damage caused by UV radiation,[1],U
same,Protects tissue from UV radiation damage,[1],U
same,Secretion of elastin,human dermal fibroblasts [3],stimulate
same,Stimulates Elastin,human dermal fibroblasts [3],P
same,Stimulates Migration,cell migration,P
same,Stimulates L1 production,L1,U
same,Promotes neuron survival,neuron survival,U
Ac-Leu-Lys-Lys-Thr-Glu-Thr-OH (Ac-LKKTET-OH) [Peptide 1B],Promotes neurite outgrowth,neurite outgrowth,U
same,Inhibits tissue damage caused by UV radiation,[1],U
same,Protects tissue from UV radiation damage,[1],U
same,Inhibits collagens,human dermal fibroblasts [2],P
same,Stimulates L1 production,L1,U
same,Promotes neuron survival,neuron survival,U
Ac-Met-Ala-Glu-Ile-Glu-Lys-Phe-Asp-Lys-Ser-OH (Ac-MAEIEKFDKS-OH) [Peptide 7B],Promotes neurite outgrowth,neurite outgrowth,U
same,Inhibits tissue damage caused by UV radiation,[1],U
same,Protects tissue from UV radiation damage,[1],U
same,Secretion of elastin,human dermal fibroblasts [3],stimulate
same,Stimulates Elastin,human dermal fibroblasts [3],U
same,Inhibits collagens,human dermal fibroblasts [2],U
same,Stimulates L1 production,L1,U
same,Promotes neuron survival,neuron survival,U
Ac-SDKPDMAEIEKFDKS-OH [Peptide 3B],Promotes neurite outgrowth,neurite outgrowth,U
same,Protection of Fb against the cytotoxic effects of CHX (LDH),"human dermal fibroblasts [4]; 1 μg/ml, 0.002% CHX, 2 hour exposure",protect
same,Protects from cytotoxicity,human dermal fibroblasts [4],P
same,Inhibits tissue damage caused by UV radiation,[1],U
same,Protects tissue from UV radiation damage,[1],U
same,Inhibits collagens,human dermal fibroblasts [2],P
same,Stimulates L1 production,L1,U
same,Promotes neuron survival,neuron survival,U
Ac-SDKPDMAEIEKFDKSKLKKTET-OH [Fragment Ab],Promotes neurite outgrowth,neurite outgrowth,U
same,Protects from cytotoxicity,human dermal fibroblasts [4],U
same,Inhibits tissue damage caused by UV radiation,[1],U
same,Protects tissue from UV radiation damage,[1],U
same,Stimulates Elastin,human dermal fibroblasts [3],U
same,Inhibits apoptosis,human dermal Fb,U
same,Inhibits collagens,human dermal fibroblasts [2],U
same,Stimulates collagens,human dermal fibroblasts [2],U
same,Stimulates Migration,cell migration,U
same,Stimulates L1 production,L1,U
same,Promotes neuron survival,neuron survival,U
same,Suppresses inflammation,[5],U
Ac-SDKPDMAEIEKFDKSKLKKTETQ-OH [Fragment Bb],Promotes neurite outgrowth,neurite outgrowth,U
same,Protects from cytotoxicity,human dermal fibroblasts [4],U
same,Inhibits tissue damage caused by UV radiation,[1],U
same,Protects tissue from UV radiation damage,[1],U
same,Stimulates Elastin,human dermal fibroblasts [3],U
same,Inhibits apoptosis,human dermal Fb,U
same,Inhibits collagens,human dermal fibroblasts [2],U
same,Stimulates collagens,human dermal fibroblasts [2],U
same,Stimulates Migration,cell migration,U
same,Stimulates L1 production,L1,U
same,Promotes neuron survival,neuron survival,U
same,Suppresses inflammation,[5],U
H-Glu-Lys-Asn-Pro-Leu-Pro-Ser-Lys-Glu-Thr-OH (H-EKNPLPSKET-OH) [Peptide 5A],Promotes neurite outgrowth,neurite outgrowth,U
same,Inhibits tissue damage caused by UV radiation,[1],U
same,Protects tissue from UV radiation damage,[1],U
same,Stimulates Migration,cell migration,P
same,Stimulates L1 production,L1,U
same,Promotes neuron survival,neuron survival,U
H-Ile-Glu-Gln-Glu-Lys-Gln-Ala-Gly-Glu-Ser-OH (H-IEQEKQAGES-OH) [Peptide 6A],Promotes neurite outgrowth,neurite outgrowth,U
same,Inhibits tissue damage caused by UV radiation,[1],U
same,Protects tissue from UV radiation damage,[1],U
same,Inhibits collagens,human dermal fibroblasts [2],P
same,Stimulates L1 production,L1,U
same,Promotes neuron survival,neuron survival,U
H-Met-Ala-Glu-Ile-Glu-Lys-Phe-Asp-Lys-Ser-OH (H-MAEIEKFDKS-OH) [Peptide 7A],Promotes neurite outgrowth,neurite outgrowth,U
same,Inhibits tissue damage caused by UV radiation,[1],U
same,Protects tissue from UV radiation damage,[1],U
same,Inhibits collagens,human dermal fibroblasts [2],P
same,Stimulates L1 production,L1,U
same,Promotes neuron survival,neuron survival,U
H-Ser-Asp-Lys-Pro-OH (H-SDKP-OH) [Peptide 2A],Promotes neurite outgrowth,neurite outgrowth,U
same,Inhibits tissue damage caused by UV radiation,[1],U
same,Protects tissue from UV radiation damage,[1],U
same,Inhibits collagens,human dermal fibroblasts [2],P
same,Collagen type IV secretion,"[6]; corneal epithelial cells, 1 μg/ml, 24 hours",stimulate
same,Stimulates collagen IV,[6]; summary of peptide uses,P
same,Stimulates L1 production,L1,U
same,Promotes neuron survival,neuron survival,U
